Reference: patent publication US20170369444A1, “INHIBITORS OF HISTONE DEMETHYLASES” (Gilead Sciences, Inc., priority 2014, published 2017)

Assays:
Assay type in all cases: biochemical
KDM4C (JMJD2C) = molecular target: T1, KDM4C (JMJD2C) (Homo sapiens, UniProt Q9H3R0); test: Histone lysine demethylase AlphaLISA assay, KDM4C; conditions: in vitro enzyme, read-out: KDM4C IC50 (HDME Inhibition)
T1 construct: 1-349; host or cells: E. coli
T1 sequence (Q9H3R0 1-349): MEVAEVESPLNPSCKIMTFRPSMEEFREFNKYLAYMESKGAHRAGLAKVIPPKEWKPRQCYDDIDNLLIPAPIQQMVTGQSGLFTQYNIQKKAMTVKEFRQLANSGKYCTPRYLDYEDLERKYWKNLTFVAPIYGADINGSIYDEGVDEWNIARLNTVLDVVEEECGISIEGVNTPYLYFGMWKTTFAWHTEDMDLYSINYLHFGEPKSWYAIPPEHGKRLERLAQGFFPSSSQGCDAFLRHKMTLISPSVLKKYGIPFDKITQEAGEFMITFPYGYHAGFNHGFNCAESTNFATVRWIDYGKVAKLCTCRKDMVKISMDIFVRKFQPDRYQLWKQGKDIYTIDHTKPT
Experimental: (§1) Histone lysine demethylase AlphaLISA assays are performed to determine IC50 values. […] Assays are performed analogously to the protocol described by PerkinElmer (Roy et al. PerkinElmer Technical Note: AlphaLISA #12, April 2011).
(§2) Assays are performed analogously to the protocol described by PerkinElmer (Roy et al. PerkinElmer Technical Note: AlphaLISA #12, April 2011).
(§3) Enzymes (final assay concentration 0.1-2.5 nM) are dissolved in enzyme buffer and incubated for 10 min before 5 μL is added to 5 μL 3% DMSO solutions of compounds in enzyme buffer, incubated for another 10 minutes, before 5 μL substrate solution is added and the reaction mixture is incubated at room temperature. 10 μL acceptor beads, suspended Epigenetic Buffer (Perkin Elmer AL008) from stock, are added and the suspension is incubated in the dark at room temperature, before 10 μL suspension of streptavidin donor beads (Perkin Elmer 6760002) in Epigenetic Buffer is added. After incubation at room temperature in the dark the plates are read.
(§4) Substrate solution: Substrate (final assay concentration 50-200 nM), 50 mM Hepes (pH 7.4-8.0), 0.003% Tween-20, 0.1% BS, 25 μM L-Asc, 10 μM α-KG. Enzyme Buffer: 50 mM Hepes (pH 7.4-8.0), 0.003% Tween-20, 0.1% BSA; 5 μM (NH4)2Fe(SO4)2

KDM6A (UTX) = molecular target: T2, KDM6A (UTX) (Homo sapiens, UniProt O15550); test: Histone lysine demethylase AlphaLISA assay, KDM6A; conditions: in vitro enzyme, read-out: KDM6A IC50 (HDME Inhibition)
T2 construct: 919-1401; host or cells: E. coli
Experimental: as §1, §2, §3, §4

KDM5B (PLU-1) = molecular target: T3, KDM5B (PLU-1) (Homo sapiens, UniProt Q9UGL1); test: Histone lysine demethylase AlphaLISA assay, KDM5B; conditions: in vitro enzyme, read-out: KDM5B IC50 (HDME Inhibition)
T3 construct: 1-809; host or cells: E. coli
T3 sequence (Q9UGL1 1-809): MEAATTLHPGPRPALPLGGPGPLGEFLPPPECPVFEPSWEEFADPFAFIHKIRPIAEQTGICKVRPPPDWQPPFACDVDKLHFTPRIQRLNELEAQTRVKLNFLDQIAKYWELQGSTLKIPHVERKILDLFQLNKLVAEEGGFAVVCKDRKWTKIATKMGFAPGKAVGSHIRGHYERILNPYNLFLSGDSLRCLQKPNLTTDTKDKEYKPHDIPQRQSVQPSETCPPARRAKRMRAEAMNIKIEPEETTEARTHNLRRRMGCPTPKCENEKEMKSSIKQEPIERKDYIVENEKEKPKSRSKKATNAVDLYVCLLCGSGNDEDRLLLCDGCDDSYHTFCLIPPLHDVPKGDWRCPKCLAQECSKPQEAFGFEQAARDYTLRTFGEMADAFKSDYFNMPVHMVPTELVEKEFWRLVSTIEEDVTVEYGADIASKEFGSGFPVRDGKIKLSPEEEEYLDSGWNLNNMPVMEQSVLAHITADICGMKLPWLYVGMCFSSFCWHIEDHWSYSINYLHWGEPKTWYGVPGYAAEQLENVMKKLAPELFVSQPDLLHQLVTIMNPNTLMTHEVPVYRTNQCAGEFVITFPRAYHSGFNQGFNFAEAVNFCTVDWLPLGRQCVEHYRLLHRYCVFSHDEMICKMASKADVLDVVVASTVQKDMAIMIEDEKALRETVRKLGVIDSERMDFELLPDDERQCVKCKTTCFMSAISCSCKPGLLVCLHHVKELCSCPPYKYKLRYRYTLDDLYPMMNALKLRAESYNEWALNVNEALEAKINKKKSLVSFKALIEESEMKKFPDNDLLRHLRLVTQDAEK
Experimental: as §1, §2, §3, §4

PHF8 (KDM7) = PHF8 (KDM7) (Homo sapiens, UniProt Q9UPP1); test: Histone lysine demethylase AlphaLISA assay, PHF8; conditions: in vitro enzyme, read-out: PHF8 IC50 (HDME Inhibition)
Experimental: as §1, §2, §3, §4

KDM2B (FBXL10) = molecular target: T4, KDM2B (FBXL10) (Homo sapiens, UniProt Q8NHM5); test: Histone lysine demethylase AlphaLISA assay, KDM2B; conditions: in vitro enzyme, read-out: KDM2B IC50 (HDME Inhibition)
T4 construct: 1-650; purchased BPS Bioscience, US; host or cells: Bac (baculovirus/insect cells)
T4 sequence (Q8NHM5 1-650): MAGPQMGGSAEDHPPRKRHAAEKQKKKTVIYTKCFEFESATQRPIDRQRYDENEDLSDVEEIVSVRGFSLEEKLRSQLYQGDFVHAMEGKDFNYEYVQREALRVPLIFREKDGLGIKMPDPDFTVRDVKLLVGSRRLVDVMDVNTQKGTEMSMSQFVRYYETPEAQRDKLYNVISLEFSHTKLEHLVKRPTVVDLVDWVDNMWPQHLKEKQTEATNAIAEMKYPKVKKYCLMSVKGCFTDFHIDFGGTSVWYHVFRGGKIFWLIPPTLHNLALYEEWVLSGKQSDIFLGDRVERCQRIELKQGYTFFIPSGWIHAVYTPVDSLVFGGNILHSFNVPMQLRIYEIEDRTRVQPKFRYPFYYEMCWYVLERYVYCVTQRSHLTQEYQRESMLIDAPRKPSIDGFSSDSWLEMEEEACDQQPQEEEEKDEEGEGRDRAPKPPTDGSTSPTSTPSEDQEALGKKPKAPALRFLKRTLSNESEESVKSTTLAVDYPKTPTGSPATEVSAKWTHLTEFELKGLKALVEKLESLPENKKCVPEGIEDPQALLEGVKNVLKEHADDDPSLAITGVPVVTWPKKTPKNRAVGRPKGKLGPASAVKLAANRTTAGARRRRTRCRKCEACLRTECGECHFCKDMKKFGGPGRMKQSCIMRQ
Experimental: as §1, §2, §3, §4

Chain of PHF8 (KDM7) (Q9UPP1 whole entry): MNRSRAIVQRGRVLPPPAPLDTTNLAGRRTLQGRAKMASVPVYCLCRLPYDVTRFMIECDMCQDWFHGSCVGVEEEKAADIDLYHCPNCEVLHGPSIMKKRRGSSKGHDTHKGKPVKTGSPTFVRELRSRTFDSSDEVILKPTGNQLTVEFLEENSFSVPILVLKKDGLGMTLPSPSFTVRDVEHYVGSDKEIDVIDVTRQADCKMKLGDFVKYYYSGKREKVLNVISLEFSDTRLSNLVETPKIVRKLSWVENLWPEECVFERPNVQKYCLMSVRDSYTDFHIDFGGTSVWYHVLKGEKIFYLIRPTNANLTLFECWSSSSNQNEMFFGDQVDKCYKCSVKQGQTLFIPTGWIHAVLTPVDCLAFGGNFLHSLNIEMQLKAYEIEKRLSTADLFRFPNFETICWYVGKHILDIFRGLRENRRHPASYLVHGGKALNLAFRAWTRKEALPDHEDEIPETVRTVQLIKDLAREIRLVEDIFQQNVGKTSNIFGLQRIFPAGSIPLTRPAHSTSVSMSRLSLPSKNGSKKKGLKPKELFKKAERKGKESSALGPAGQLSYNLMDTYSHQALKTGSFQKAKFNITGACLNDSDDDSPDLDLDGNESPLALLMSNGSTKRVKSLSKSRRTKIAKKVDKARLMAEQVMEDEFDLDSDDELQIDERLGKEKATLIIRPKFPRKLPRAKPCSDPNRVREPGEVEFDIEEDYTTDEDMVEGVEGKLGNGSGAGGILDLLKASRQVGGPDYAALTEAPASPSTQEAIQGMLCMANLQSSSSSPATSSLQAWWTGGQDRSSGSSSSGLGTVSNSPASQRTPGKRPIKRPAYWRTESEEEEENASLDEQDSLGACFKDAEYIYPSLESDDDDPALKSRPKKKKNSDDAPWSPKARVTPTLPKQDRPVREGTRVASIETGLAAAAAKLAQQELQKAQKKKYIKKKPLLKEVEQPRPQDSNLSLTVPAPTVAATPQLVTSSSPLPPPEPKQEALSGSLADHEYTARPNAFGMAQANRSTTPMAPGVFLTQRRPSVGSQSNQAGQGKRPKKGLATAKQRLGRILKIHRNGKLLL
T2 sequence (O15550 919-1401): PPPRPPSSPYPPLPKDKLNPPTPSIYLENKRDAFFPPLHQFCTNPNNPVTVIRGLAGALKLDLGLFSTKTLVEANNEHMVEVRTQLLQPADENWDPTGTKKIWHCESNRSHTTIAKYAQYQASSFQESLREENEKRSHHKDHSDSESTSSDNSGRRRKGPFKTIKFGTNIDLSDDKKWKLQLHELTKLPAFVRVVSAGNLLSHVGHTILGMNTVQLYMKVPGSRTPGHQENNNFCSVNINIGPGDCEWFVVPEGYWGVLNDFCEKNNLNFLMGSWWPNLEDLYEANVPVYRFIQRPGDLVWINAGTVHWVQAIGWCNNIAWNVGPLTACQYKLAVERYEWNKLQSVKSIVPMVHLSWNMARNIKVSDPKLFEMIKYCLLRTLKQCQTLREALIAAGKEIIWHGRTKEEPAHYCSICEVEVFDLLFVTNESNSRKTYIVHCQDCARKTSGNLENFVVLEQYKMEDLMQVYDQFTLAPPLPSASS

Row | Compound | IC50 (KDM4C (JMJD2C)) | IC50 (KDM6A (UTX)) | IC50 (KDM5B (PLU-1)) | IC50 (PHF8 (KDM7)) | IC50 (KDM2B (FBXL10))
1 | O=C(O)c1ccnc(CNCc2nccn2C/C=C/c2ccccc2)c1 [Compound 13, 2-{[({1-[(2E)-3-phenylprop-2-en-1-yl]-1H-imidazol-2-yl}methyl)amino]methyl}pyridine-4-carboxylic acid] | > 2500 nM | > 2500 nM | < 250 nM |  | 
2 | CCN(CC)C(=O)CCN(CCNC(C)=O)Cc1cc(C(=O)O)ccn1 [Compound 27, 2-({[2-(diethylcarbamoyl)ethyl](2-acetamidoethyl)amino}methyl)pyridine-4-carboxylic acid] |  | > 2500 nM | 250 to 2500 nM | 250 to 2500 nM | 250 to 2500 nM
3 | CSCC[C@H](NCc1cc(C(=O)O)ccn1)C(=O)OC(C)(C)C [Compound 49, 2-({[(2S)-1-(tert-butoxy)-4-(methylsulfanyl)-1-oxobutan-2-yl]amino}methyl)pyri-dine-4-carboxylic acid] |  | > 2500 nM |  | 250 to 2500 nM | 250 to 2500 nM
4 | O=C(O)c1ccnc(CN2CCCC(C3CCCCC3)C2CO)c1 (stereo not shown) [Compound 62, 2-{[3-cyclohexyl-2-(hydroxymethyl)piperidin-1-yl]methyl}pyridine-4-carboxylic acid] | > 2500 nM |  | 250 to 2500 nM |  | 
5 | O=C(O)c1ccnc(CN2CCCC(c3ccccc3)C2CO)c1 (stereo not shown) [Compound 63, 2-{[2-(hydroxymethyl)-3-phenylpiperidin-1-yl]methyl}pyridine-4-carboxylic acid] | > 2500 nM |  | > 2500 nM |  | 
6 | CCNC(=O)C1CN(Cc2cc(C(=O)O)ccn2)C1 [Compound 68, 2-{[3-(ethylcarbamoyl)azetidin-1-yl]methyl}pyridine-4-carboxylic acid] | 250 to 2500 nM |  | 250 to 2500 nM | < 250 nM | 
7 | O=C(O)c1ccnc(CN2CCCC[C@H]2CC(=O)N2CCCCC2)c1 [Compound 70, 2-{[(2S)-2-[2-oxo-2-(piperidin-1-yl)ethyl]piperidin-1-yl]methyl}pyridine-4-carboxylic acid] | > 2500 nM |  |  | > 2500 nM | 
8 | CCNC(=O)C1CCN(Cc2cc(C(=O)O)ccn2)CC1 [Compound 75, 2-{[4-(ethylcarbamoyl)piper-idin-1-yl]methyl} pyridine-4-carboxylic acid] |  | > 2500 nM | > 2500 nM | 250 to 2500 nM | 250 to 2500 nM
9 | O=C(O)c1ccnc(CNC2CCCn3ccnc32)c1 (stereo not shown) [Compound 90, 2-[({5H,6H,7H,8H-imidazo[1,2-a]pyridin-8-yl}amino)methyl]pyri-dine-4-carboxylic acid] | 250 to 2500 nM |  | < 250 nM | < 250 nM | 
10 | O=C(O)c1ccnc(CNC2CCc3c(Br)ccnc32)c1 (stereo not shown) [Compound 91, 2-[({4-bromo-5H,6H,7H-cyclopenta[b]pyridin-7-yl}amino)methyl]pyri-dine-4-carboxylic acid] | 250 to 2500 nM |  | < 250 nM |  | 
11 | C=Cc1ccnc2c1CCC2NCc1cc(C(=O)O)ccn1 (stereo not shown) [Compound 100, 2-[({4-ethenyl-5H,6H,7H-cyclopenta[b]pyridin-7-yl}amino)methyl]pyri-dine-4-carboxylic acid] | 250 to 2500 nM |  | < 250 nM | < 250 nM | 
12 | CCN1CC[C@@H](CNCc2cc(C(=O)O)ccn2)C1=O [Compound 105, 2-[({[(3S)-1-ethyl-2-oxopyrrolidin-3-yl]methyl}amino)methyl]pyridine-4-carboxylic acid] |  | > 2500 nM |  | < 250 nM | < 250 nM

Second part, the compound after the results:

Row | IC50 (KDM4C (JMJD2C)) | IC50 (KDM6A (UTX)) | IC50 (KDM5B (PLU-1)) | IC50 (PHF8 (KDM7)) | IC50 (KDM2B (FBXL10)) | Compound
13 | > 2500 nM | > 2500 nM |  |  |  | CC(N[C@@H](C)C(=O)NCc1cccc(C(=O)O)c1)c1cc(C(=O)O)ccn1 (stereo partly drawn) [Compound 1, 2-(1-{[(1S)-1-{[(3-carboxyphenyl)methyl]carbamoyl}ethyl]amino}ethyl)pyridine-4-carboxylic acid]
14 | > 2500 nM |  | > 2500 nM | > 2500 nM |  | CC(N[C@@H](C)C(=O)NCc1ccc([N+](=O)[O-])cc1)c1cc(C(=O)O)ccn1 (stereo partly drawn) [Compound 5, 2-(1-{[(1S)-1-{[(4-nitrophenyl)methyl]carbamoyl}ethyl]amino}ethyl)pyridine-4-carboxylic acid]
15 | > 2500 nM | > 2500 nM | > 2500 nM |  |  | CC(N[C@@H](C)C(=O)NCc1ccncc1)c1cc(C(=O)O)ccn1 (stereo partly drawn) [Compound 15, 2-(1-{[(1S)-1-[(pyridin-4-ylmethyl)carbamoyl]ethyl]amino}ethyl)pyri-dine-4-carboxylic acid]
16 | > 2500 nM |  | 250 to 2500 nM | > 2500 nM |  | O=C(O)c1ccnc(CN2CCC(c3ccc(F)cc3)n3ccnc3C2)c1 (stereo not shown) [Compound 50, 2-{[5-(4-fluorophenyl)-5H,6H,7H,8H,9H-imidazo[1,2-a][1,4]diazepin-8-yl]methyl}pyridine-4-carboxylic acid]
17 | < 250 nM |  | < 250 nM |  |  | CC(C)C[C@@H](CO)NCc1cc(C(=O)O)ccn1 [Compound 61, (S)-2-{[(1-hydroxy-4-methylpentan-2-yl)amino]methyl}pyri-dine-4-carboxylic acid]
18 |  | > 2500 nM |  | < 250 nM | < 250 nM | COc1ccc([C@@H](C)N2CC[C@@H](CNCc3cc(C(=O)O)ccn3)C2=O)cc1 [Compound 78, 2-[({[(3S)-1-[(1R)-1-(4-methoxyphenyl)ethyl]-2-oxopyrrolidin-3-yl]methyl}amino)methyl]pyridine-4-carboxylic acid]
19 |  | > 2500 nM | < 250 nM | < 250 nM | 250 to 2500 nM | CC(C)(C)c1nc2ccccn2c1CNCc1cc(C(=O)O)ccn1 [Compound 88, 2-{[({2-tert-butylimidazo[1,2-a]pyridin-3-yl}methyl)amino]methyl}pyridine-4-carboxylic acid]
20 |  | > 2500 nM | < 250 nM | 250 to 2500 nM | 250 to 2500 nM | O=C(O)c1ccnc(CNC2CCc3c(Cc4ccccc4)ccnc32)c1 (stereo not shown) [Compound 92, 2-[({4-benzyl-5H,6H,7H-cyclopenta[b]pyridin-7-yl}amino)methyl]pyri-dine-4-carboxylic acid]
